Values quoted from earlier work, collected in patent publication EP0271041A2, “Atrial peptide derivatives” (ABBOTT LABORATORIES, priority 1986, dated 1988).
Bridges are numbered along the chain shown (N, C = ends). Where no end group is shown, it is not given here.

Settings: relative to furosemide

For “alpha-human atrial natriuretic polypeptide (SLRRSSCFGGRMDRIGAQSGLGCNSFRY; disulfide 7-23 (inferred); ends not checked; UniProt P01160 124-151, looked up) [alpha-hANP, polypeptide consisting of 28 amino acids isolated from human atrium]”, the “diuretic action, times as strong as that of furosemide” value is listed as “about 1000 times”.
